Experimental findings from patent US12275731B2, “Azaindole inhibitors of wild-type and mutant forms of LRRK2” (DANA-FARBER CANCER INSTITUTE, INC., priority 2018, dated 2025) are described below.

Test in all cases: KinomeScan profiling
Common to all, as to assay type: binding

One test addresses T1, BIKE (Homo sapiens, UniProt Q9NSY1).
T1 construct: purchased KinomeScan®
To be noted: read-out: % control. The method, boiled down:
(§1)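 1 μM cpd in DMSO; 468-kinase panel; readout RLU. % ctrl = (cpd − pos ctrl)/(neg ctrl − pos ctrl) ×100. Pos ctrl = 0%, DMSO = 100%. Hit cut-off <35%.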

For a further test, the target named is CAMK1B (Homo sapiens, UniProt Q6P2M8). To be noted: read-out: % control. The procedure, abridged: as §1
The next test concerns the target CSK (Homo sapiens, UniProt P41240). The note with it: read-out: % control. The method, boiled down:
as §1

For a further test, the target named is CSNK1G3 (Homo sapiens, UniProt Q9Y6M4). The note with it: CSNK1G3, 1 μM; read-out: % control. The method, boiled down: as §1
Sequence of CSNK1G3 (Q9Y6M4 whole entry): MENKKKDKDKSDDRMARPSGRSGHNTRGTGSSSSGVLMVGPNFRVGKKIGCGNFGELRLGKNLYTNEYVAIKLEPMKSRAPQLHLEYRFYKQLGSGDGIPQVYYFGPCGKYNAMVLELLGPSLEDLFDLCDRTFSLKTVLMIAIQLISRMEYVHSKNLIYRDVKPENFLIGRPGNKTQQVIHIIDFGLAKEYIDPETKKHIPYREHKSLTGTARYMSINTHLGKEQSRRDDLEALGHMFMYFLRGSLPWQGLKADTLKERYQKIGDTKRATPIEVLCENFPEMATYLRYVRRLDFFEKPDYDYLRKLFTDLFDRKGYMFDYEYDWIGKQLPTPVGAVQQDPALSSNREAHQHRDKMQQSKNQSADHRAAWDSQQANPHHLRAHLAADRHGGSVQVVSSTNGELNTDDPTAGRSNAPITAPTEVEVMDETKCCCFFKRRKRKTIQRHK
The target in the next test is T2, DMPK (Homo sapiens, UniProt Q09013).
T2 sequence (Q09013 1-629): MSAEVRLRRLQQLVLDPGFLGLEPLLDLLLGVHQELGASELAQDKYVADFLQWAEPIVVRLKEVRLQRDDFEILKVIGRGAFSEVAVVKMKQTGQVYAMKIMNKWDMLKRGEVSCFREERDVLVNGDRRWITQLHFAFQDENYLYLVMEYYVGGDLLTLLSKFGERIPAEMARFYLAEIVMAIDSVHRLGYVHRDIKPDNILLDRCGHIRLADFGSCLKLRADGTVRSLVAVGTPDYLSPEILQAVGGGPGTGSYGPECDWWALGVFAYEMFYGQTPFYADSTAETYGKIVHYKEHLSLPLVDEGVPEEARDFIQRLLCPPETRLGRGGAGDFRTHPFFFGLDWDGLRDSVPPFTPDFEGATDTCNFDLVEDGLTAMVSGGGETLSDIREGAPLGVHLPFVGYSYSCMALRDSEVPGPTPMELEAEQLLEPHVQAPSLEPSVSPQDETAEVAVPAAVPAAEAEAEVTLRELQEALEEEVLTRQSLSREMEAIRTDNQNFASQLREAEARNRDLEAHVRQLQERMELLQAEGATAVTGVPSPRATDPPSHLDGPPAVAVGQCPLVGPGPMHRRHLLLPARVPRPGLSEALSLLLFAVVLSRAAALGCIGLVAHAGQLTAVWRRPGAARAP
The note with it: read-out: % control. The procedure, abridged:
as §1

A further test addresses T3, KIT(D816H) (Homo sapiens, UniProt P10721, D816H).
T3 construct: purchased KinomeScan®
The note with it: read-out: % control. The method, boiled down: as §1

In a further test the target is T4, KIT-autoinhibited (Homo sapiens, UniProt P10721).
T4 construct: purchased KinomeScan®
T4 sequence (P10721 544-976 limits assumed): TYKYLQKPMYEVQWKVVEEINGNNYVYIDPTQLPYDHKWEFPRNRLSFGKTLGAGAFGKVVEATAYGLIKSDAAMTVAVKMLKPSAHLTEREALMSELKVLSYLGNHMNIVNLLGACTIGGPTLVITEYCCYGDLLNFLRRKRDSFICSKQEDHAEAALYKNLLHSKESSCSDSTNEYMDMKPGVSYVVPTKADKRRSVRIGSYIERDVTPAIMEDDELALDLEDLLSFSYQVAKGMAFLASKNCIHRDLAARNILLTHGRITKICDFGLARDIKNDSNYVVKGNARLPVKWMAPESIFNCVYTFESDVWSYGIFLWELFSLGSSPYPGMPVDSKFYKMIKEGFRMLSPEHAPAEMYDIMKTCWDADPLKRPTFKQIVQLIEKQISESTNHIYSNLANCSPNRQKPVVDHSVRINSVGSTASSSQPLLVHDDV
To be noted: read-out: % control. The procedure, abridged: as §1

Another test deals with T5, MAP3K3 (Homo sapiens, UniProt Q99759).
T5 sequence (Q99759 1-626): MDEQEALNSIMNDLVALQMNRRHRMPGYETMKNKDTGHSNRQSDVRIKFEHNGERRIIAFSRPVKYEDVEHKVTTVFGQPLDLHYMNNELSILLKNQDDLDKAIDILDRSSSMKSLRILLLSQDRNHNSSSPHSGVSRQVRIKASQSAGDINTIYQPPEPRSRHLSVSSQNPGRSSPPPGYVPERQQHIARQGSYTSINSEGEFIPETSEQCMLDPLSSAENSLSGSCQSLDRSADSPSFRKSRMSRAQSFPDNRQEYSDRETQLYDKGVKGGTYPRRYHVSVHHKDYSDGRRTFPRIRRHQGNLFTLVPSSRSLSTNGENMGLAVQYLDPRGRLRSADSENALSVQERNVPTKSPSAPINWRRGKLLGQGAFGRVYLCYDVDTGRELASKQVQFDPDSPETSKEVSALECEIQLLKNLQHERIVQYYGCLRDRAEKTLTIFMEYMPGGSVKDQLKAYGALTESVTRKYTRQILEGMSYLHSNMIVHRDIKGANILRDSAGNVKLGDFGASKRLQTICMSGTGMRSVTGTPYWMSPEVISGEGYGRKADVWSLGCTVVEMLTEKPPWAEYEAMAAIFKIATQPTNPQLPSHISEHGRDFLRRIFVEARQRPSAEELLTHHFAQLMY
To be noted: MAP3K3, 1 μM; read-out: % control. The procedure, abridged: as §1

A further test concerns the target T6, PIK3CB (Homo sapiens, UniProt P42338).
T6 construct: purchased KinomeScan® (panel service)
The note with it: read-out: % control. The method, boiled down:
as §1

For a further test, the target named is T7, PIKFYVE (Homo sapiens, UniProt Q9Y2I7).
T7 construct: purchased KinomeScan® (panel service)
To be noted: read-out: % control. The method, boiled down:
as §1

The next test deals with T8, TGFBR1 (Homo sapiens, UniProt P36897).
T8 sequence (P36897 34-503): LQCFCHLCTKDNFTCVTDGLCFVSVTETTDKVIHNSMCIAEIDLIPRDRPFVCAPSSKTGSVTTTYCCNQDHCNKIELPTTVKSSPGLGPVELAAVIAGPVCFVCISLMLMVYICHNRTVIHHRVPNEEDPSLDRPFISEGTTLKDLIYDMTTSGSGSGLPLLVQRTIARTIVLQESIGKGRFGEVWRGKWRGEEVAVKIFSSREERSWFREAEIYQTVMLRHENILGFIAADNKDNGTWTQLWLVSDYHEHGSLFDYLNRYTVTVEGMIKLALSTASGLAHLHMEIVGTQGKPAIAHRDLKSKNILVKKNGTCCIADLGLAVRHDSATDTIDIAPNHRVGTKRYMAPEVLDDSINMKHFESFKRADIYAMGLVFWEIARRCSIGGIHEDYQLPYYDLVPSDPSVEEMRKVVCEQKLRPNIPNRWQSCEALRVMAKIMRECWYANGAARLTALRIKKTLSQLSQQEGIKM
The note with it: TGFBR1, 1 μM; read-out: % control. The method, boiled down: as §1

For the next test, the target named is YANK3 (Homo sapiens, UniProt Q86UX6). The note with it: YANK3, 1 μM; read-out: % control. The procedure, abridged:
as §1

T3 sequence (P10721 26-976 D816H): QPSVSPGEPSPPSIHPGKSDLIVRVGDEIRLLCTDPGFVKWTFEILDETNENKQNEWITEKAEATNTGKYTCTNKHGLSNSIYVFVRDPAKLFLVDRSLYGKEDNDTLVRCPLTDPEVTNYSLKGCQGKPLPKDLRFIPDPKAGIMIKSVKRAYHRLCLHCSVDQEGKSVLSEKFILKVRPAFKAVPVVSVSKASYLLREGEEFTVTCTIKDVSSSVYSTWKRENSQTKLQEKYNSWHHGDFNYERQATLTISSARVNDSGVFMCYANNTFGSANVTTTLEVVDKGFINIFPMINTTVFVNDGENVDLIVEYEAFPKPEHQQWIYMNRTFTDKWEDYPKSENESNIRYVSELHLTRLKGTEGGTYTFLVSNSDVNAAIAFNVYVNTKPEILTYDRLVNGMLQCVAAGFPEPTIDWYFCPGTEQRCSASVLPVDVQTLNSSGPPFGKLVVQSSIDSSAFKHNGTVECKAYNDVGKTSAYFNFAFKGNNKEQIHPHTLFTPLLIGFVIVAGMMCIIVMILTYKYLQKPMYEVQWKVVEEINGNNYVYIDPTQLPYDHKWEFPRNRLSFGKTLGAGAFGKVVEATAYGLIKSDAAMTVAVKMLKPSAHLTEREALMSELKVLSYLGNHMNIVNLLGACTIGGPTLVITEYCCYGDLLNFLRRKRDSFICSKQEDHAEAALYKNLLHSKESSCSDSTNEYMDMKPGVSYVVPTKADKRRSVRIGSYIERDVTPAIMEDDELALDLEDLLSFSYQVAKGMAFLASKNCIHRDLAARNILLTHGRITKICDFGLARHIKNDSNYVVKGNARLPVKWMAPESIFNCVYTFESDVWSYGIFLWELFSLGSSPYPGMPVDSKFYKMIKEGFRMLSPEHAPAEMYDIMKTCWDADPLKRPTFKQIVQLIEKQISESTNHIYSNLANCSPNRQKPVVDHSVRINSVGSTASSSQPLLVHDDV
Sequence of CSK (P41240 whole entry): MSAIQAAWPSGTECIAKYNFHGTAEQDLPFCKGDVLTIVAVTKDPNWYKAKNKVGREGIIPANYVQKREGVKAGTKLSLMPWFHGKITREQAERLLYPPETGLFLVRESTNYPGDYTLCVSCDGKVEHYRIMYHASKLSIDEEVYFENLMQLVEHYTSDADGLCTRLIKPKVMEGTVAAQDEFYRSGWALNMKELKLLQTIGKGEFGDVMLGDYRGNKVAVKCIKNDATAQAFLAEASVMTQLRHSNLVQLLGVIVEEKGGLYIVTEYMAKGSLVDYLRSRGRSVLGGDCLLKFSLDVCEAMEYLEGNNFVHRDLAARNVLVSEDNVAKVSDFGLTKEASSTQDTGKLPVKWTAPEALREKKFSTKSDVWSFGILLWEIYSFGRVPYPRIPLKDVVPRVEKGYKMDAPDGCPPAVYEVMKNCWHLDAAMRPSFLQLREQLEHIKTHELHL
T1 sequence (Q9NSY1 whole entry): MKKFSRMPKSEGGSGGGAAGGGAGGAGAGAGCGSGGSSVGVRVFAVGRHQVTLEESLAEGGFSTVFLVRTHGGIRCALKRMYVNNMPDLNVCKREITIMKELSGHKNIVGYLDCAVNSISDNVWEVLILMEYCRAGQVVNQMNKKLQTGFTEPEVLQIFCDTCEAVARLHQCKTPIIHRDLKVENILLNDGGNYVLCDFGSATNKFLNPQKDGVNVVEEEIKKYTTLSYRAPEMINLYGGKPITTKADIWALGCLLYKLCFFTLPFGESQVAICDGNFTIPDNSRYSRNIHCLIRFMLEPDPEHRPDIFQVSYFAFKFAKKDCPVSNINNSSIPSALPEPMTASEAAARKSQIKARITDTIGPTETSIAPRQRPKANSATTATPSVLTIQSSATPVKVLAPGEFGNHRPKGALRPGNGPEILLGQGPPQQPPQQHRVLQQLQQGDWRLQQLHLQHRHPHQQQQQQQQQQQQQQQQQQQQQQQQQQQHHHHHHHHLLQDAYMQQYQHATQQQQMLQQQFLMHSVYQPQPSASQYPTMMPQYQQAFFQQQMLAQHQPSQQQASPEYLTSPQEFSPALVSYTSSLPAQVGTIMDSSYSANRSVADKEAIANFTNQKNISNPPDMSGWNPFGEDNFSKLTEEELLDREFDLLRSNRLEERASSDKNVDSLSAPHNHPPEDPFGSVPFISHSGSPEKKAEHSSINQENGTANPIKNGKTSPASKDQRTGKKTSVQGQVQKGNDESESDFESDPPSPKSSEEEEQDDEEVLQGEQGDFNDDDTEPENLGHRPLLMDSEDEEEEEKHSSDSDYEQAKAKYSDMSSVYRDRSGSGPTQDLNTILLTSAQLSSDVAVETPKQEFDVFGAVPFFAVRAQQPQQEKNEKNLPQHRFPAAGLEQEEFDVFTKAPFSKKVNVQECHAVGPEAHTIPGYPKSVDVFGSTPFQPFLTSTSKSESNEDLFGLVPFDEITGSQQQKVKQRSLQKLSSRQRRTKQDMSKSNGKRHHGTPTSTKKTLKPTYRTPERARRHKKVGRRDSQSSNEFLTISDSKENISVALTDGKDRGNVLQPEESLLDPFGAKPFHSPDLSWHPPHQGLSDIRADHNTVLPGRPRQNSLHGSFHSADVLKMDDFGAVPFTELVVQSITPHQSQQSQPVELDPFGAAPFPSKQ
T6 sequence (P42338 whole entry): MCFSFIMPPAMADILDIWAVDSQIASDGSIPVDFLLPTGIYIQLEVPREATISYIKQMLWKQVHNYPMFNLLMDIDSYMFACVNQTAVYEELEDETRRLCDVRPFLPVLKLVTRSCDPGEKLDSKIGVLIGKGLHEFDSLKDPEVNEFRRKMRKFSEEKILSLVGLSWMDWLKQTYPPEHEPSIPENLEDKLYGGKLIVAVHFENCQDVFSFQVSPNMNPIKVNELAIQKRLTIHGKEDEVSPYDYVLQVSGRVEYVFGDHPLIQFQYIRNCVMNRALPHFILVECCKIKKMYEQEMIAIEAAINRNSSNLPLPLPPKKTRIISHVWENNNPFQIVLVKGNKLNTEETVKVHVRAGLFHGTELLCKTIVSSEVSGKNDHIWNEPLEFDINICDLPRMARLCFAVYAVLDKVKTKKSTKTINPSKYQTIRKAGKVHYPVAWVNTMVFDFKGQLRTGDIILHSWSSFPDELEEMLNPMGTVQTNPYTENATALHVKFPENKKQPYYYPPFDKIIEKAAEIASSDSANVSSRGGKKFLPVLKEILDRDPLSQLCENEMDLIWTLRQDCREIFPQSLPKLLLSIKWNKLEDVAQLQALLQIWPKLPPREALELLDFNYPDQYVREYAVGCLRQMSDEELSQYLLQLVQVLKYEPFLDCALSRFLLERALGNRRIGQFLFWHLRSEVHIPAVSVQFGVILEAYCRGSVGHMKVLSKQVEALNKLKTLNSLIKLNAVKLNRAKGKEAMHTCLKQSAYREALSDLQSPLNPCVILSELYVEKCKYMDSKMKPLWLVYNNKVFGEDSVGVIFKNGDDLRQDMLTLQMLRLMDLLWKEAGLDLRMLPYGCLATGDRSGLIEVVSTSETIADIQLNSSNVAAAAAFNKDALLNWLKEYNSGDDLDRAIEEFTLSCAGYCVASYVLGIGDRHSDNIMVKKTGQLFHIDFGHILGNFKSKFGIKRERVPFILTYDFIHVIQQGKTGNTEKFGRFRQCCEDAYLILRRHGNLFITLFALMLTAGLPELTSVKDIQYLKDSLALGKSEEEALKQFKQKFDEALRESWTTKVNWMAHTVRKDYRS
Sequence of YANK3 (Q86UX6 whole entry): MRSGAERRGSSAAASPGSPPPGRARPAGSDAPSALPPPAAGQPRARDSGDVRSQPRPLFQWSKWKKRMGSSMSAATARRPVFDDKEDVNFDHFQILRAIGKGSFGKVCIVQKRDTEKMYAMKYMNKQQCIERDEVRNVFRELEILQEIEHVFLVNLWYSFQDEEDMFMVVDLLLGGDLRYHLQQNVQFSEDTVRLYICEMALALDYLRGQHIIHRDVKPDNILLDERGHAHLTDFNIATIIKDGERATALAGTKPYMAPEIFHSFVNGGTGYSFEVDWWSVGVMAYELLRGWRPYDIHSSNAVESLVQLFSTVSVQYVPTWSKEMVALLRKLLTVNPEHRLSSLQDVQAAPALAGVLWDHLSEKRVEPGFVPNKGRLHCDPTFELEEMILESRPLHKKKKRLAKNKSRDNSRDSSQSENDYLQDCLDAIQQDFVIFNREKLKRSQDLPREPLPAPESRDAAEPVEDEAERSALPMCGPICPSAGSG

Turning to `CNc1c(-c2ccc(C(=O)N3CCC(N4CCOCC4)CC3)cc2)cnc2[nH]cc(Cl)c12` [Compound 96, (4-(3-chloro-4-(methylamino)-1H-pyrrolo[2,3-b]pyridin-5-yl)phenyl)(4-morpholinopiperidin-1-yl)methanone], the remaining binding at 1 µM at BIKE amounted to 0.85%; at CAMK1B, 87%; at CSK it was 44%; at CSNK1G3, 16%; at DMPK, 36%; at KIT(D816H), 75%. The remaining binding at 1 µM at KIT-autoinhibited worked out at 64%; at MAP3K3, 51%; on PIK3CB, 100%; at PIKFYVE it was 66%; at TGFBR1, 56%; at YANK3 it was 99%.

`O=C(c1ccc(-c2cnc3[nH]cc(Cl)c3c2NC2CCCC2)cc1)N1CCC(N2CCOCC2)CC1` [Compound 101, (4-(3-chloro-4-(cyclopentylamino)-1H-pyrrolo[2,3-b]pyridin-5-yl)phenyl)(4-morpholinopiperidin-1-yl)methanone]: the remaining binding at 1 µM at BIKE stood at 6.8%; on CAMK1B it was 69%; on CSK, 100%; on CSNK1G3 it was 93%; at DMPK, 52%; at KIT(D816H) it was 92%. The remaining binding at 1 µM turned out to be 100% on KIT-autoinhibited; 47% on MAP3K3; 100% on PIK3CB; 98% on PIKFYVE; 100% at TGFBR1; 57% at YANK3.

`CNc1c(-c2cnn([C@H]3CCN(C(C)=O)C[C@@H]3F)c2)cnc2[nH]cc(Cl)c12` [Compound 77, 1-((3S,4S)-4-(4-(3-chloro-4-(methylamino)-1H-pyrrolo[2,3-b]pyridin-5-yl)-1H-pyrazol-1-yl)-3-fluoropiperidin-1-yl)ethan-1-one]: the remaining binding at 1 µM at BIKE was found to be 0.4%; at CAMK1B, 74%; at CSK, 22%; at CSNK1G3 it was 24%; on DMPK it was 36%; on KIT(D816H), 51%. The remaining binding at 1 µM on KIT-autoinhibited stood at 23%; at MAP3K3 it was 44%; on PIK3CB it was 100%; on PIKFYVE it was 53%; at TGFBR1 it was 60%; on YANK3, 97%.
